Assay results from ChEMBL document CHEMBL1201862, “PubChem BioAssay data set” (2004).
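A five-concentration, 48-hour dose response in 96-well plates underlies each endpoint, interpolated linearly between surrounding concentrations. GI50 marks 50% less growth.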 Activity calls are given as the source filed them. Rule as the data show it: active = GI50 up to about 1.1 µM and inactive = higher.

Key:
Experiment in all cases: NCI anticancer screen, dose series, 48 h
Hs-578T = test system: Hs-578T
SF-268 = test system: SF-268
CCRF-CEM = test system: CCRF-CEM
CAKI-1 = test system: CAKI-1
SK-MEL-28 = test system: SK-MEL-28
M19-MEL = test system: M19-MEL
IGROV-1 = test system: IGROV-1
SK-MEL-2 = test system: SK-MEL-2
OVCAR-5 = test system: OVCAR-5
HT-29 = test system: HT-29
NCI-H23 = test system: NCI-H23
MDA-MB-435 = test system: MDA-MB-435
XF498 = test system: XF498
MOLT-4 = test system: MOLT-4
SW-620 = test system: SW-620
DU-145 = test system: DU-145
SNB-78 = test system: SNB-78
SN12C = test system: SN12C
TK-10 = test system: TK-10
HCT-116 = test system: HCT-116
SK-MEL-5 = test system: SK-MEL-5
SNB-75 = test system: SNB-75
UACC-257 = test system: UACC-257
UACC-62 = test system: UACC-62
ACHN = test system: ACHN
HCT-15 = test system: HCT-15
SNB-19 = test system: SNB-19
UO-31 = test system: UO-31
HOP-18 = test system: HOP-18
U-251 = test system: U-251
NCI-H226 = test system: NCI-H226
T47D = test system: T47D
DLD-1 = test system: DLD-1
PC-3 = test system: PC-3
SF-539 = test system: SF-539
OVCAR-8 = test system: OVCAR-8
HOP-62 = test system: HOP-62
BT-549 = test system: BT-549
OVCAR-4 = test system: OVCAR-4
786-0 = test system: 786-0
KM-20L2 = test system: KM-20L2
HOP-92 = test system: HOP-92
NCI/ADR-RES = test system: NCI/ADR-RES
MDA-MB-231 = test system: MDA-MB-231
OVCAR-3 = test system: OVCAR-3
SF-295 = test system: SF-295
MDA-N = test system: MDA-N
A549 = test system: A549
DMS-273 = test system: DMS-273
LOX IMVI = test system: LOX IMVI
K562 = test system: K562
SK-OV-3 = test system: SK-OV-3
HL-60 = test system: HL-60
EKVX = test system: EKVX
M14 = test system: M14
HCC 2998 = test system: HCC 2998
RPMI-8226 = test system: RPMI-8226
MCF7 = test system: MCF7
Malme-3M = test system: Malme-3M
LXFL 529 = test system: LXFL 529
COLO 205 = test system: COLO 205
NCI-H460 = test system: NCI-H460
A498 = test system: A498
SR = test system: SR
DMS-114 = test system: DMS-114
RXF 631 = test system: RXF 631
KM12 = test system: KM12
NCI-H522 = test system: NCI-H522
RXF 393 = test system: RXF 393

Measured: GI50

COc1ccccc1/C=C1\CCC(Cc2ccccc2)(CN(C)C)C1=O (centres undefined)
inactive: SF-268 4850 nM | CAKI-1 2380 nM | SK-MEL-28 20300 nM | M19-MEL 2980 nM | IGROV-1 3670 nM | SK-MEL-2 6530 nM | OVCAR-5 14500 nM | NCI-H23 6430 nM | XF498 4300 nM | DU-145 7930 nM | SNB-78 2130 nM | SN12C 3750 nM | TK-10 5960 nM | SK-MEL-5 1850 nM | SNB-75 3320 nM | UACC-257 12300 nM | UACC-62 1280 nM | ACHN 12600 nM | SNB-19 1570 nM | UO-31 7590 nM | HOP-18 > 26400 nM | NCI-H226 23600 nM | T47D 22200 nM | SF-539 1520 nM | OVCAR-8 2330 nM | HOP-62 11600 nM | BT-549 5000 nM | OVCAR-4 17800 nM | 786-0 1430 nM | HOP-92 27500 nM | MDA-MB-231 4590 nM | SF-295 1340 nM | A549 3440 nM | LOX IMVI 1190 nM | SK-OV-3 8360 nM | EKVX 3350 nM | M14 3130 nM | HCC 2998 3130 nM | Malme-3M 14100 nM | LXFL 529 4550 nM | COLO 205 1370 nM | A498 6930 nM | DMS-114 2230 nM | RXF 631 1850 nM | RXF 393 7930 nM
active: Hs-578T 834 nM | CCRF-CEM 528 nM | HT-29 426 nM | MDA-MB-435 1070 nM | MOLT-4 1050 nM | SW-620 259 nM | HCT-116 406 nM | U-251 524 nM | DLD-1 414 nM | PC-3 1030 nM | KM-20L2 644 nM | NCI/ADR-RES 989 nM | OVCAR-3 942 nM | MDA-N 685 nM | DMS-273 294 nM | K562 85.1 nM | HL-60 471 nM | RPMI-8226 612 nM | MCF7 292 nM | NCI-H460 698 nM | SR 94.8 nM | KM12 319 nM | NCI-H522 597 nM
290 nM: HCT-15
